Experimental data as given in ChEMBL document CHEMBL3779877, “Anticancer activity studies of cubebin isolated from Piper cubeba and its synthetic derivatives” (Bioorg Med Chem Lett, 2016).
The source made the active and inactive calls. The calls are words filed in the database; no cut-off is given here.

Key:
A549 [1] = assay: Cytotoxicity against human A549 cells assessed as reduction in viable cells after 48 hrs by MTT assay; type: functional, cell-based; settings: A549, 48 h
K562 = assay: Cytotoxicity against human K562 cells assessed as reduction in viable cells after 48 hrs by MTT assay; type: functional, cell-based; settings: K562, 48 h
SiHa = assay: Cytotoxicity against human SiHa cells assessed as reduction in viable cells after 48 hrs by MTT assay; type: functional, cell-based
KB [2] = assay: Cytotoxicity against human KB cells assessed as reduction in viable cells after 48 hrs by MTT assay; type: functional, cell-based
[3] = Cytotoxicity against human HCT116 cells assessed as reduction in viable cells after 48 hrs by MTT assay; type: functional, cell-based; settings: HCT-116, 48 h
HT-29 = assay: Cytotoxicity against human HT-29 cells assessed as reduction in viable cells after 48 hrs by MTT assay; type: functional, cell-based; settings: HT-29, 48 h
A549 [4] = assay: Induction of apoptosis in human A549 cells assessed as cell shrinkage at cytotoxic IC50 after 48 hrs by inverted microscopic analysis; type: functional, cell-based
A549 [5] = assay: Induction of apoptosis in human A549 cells assessed as loss of normal nuclear architecture at cytotoxic IC50 after 48 hrs by inverted microscopic analysis; type: functional, cell-based
A549 [6] = assay: Induction of apoptosis in human A549 cells assessed as detached cells at cytotoxic IC50 after 48 hrs by inverted microscopic analysis; type: functional, cell-based
KB [7] = assay: Induction of apoptosis in human KB cells assessed as cell shrinkage at cytotoxic IC50 after 48 hrs by inverted microscopic analysis; type: functional, cell-based
KB [8] = assay: Induction of apoptosis in human KB cells assessed as loss of normal nuclear architecture at cytotoxic IC50 after 48 hrs by inverted microscopic analysis; type: functional, cell-based
KB [9] = assay: Induction of apoptosis in human KB cells assessed as detached cells at cytotoxic IC50 after 48 hrs by inverted microscopic analysis; type: functional, cell-based
A549 [10] = assay: Induction of apoptosis in human A549 cells assessed as cell shrinkage at cytotoxic IC50 after 48 hrs by AO/EB dual staining based fluorescent microscopic analysis; type: functional
KB [11] = assay: Induction of apoptosis in human KB cells assessed as cell shrinkage at cytotoxic IC50 after 48 hrs by AO/EB dual staining based fluorescent microscopic analysis; type: functional
A549 [12] = assay: Induction of apoptosis in human A549 cells assessed as membrane blebbing at cytotoxic IC50 after 48 hrs by AO/EB dual staining based fluorescent microscopic analysis; type: functional, cell-based
KB [13] = assay: Induction of apoptosis in human KB cells assessed as membrane blebbing at cytotoxic IC50 after 48 hrs by AO/EB dual staining based fluorescent microscopic analysis; type: functional, cell-based
A549 [14] = assay: Induction of apoptosis in human A549 cells assessed as chromosomal condensation at cytotoxic IC50 after 48 hrs by AO/EB dual staining based fluorescent microscopic analysis; type: functional, cell-based
KB [15] = assay: Induction of apoptosis in human KB cells assessed as chromosomal condensation at cytotoxic IC50 after 48 hrs by AO/EB dual staining based fluorescent microscopic analysis; type: functional, cell-based
A549 [16] = assay: Induction of apoptosis in human A549 cells assessed as condensed nuclei at cytotoxic IC50 after 48 hrs by Hoechst 33342 staining based fluorescent microscopic analysis; type: functional, cell-based
KB [17] = assay: Induction of apoptosis in human KB cells assessed as condensed nuclei at cytotoxic IC50 after 48 hrs by Hoechst 33342 staining based fluorescent microscopic analysis; type: functional, cell-based
A549 [18] = assay: Induction of apoptosis in human A549 cells assessed as fragmented nuclei at cytotoxic IC50 after 48 hrs by Hoechst 33342 staining based fluorescent microscopic analysis; type: functional, cell-based
KB [19] = assay: Induction of apoptosis in human KB cells assessed as fragmented nuclei at cytotoxic IC50 after 48 hrs by Hoechst 33342 staining based fluorescent microscopic analysis; type: functional, cell-based
[20] = Cytotoxicity against human HCT116; type: functional; settings: HCT-116

Row | SMILES | IC50 (A549 [1]) [µM] | IC50 (K562) [µM] | IC50 (SiHa) [µM] | IC50 (KB [2]) [µM] | IC50 [3] [µM] | IC50 (HT-29) [µM] | also measured
1 | O=C1[C@@H](Cc2ccc3c(c2)OCO3)[C@H](Cc2ccc3c(c2)OCO3)C(=O)N1CCc1ccccc1 | > 100 | 9.15 | 96.3 | 62.6 | 64 | 66.5 | 
2 | O=C1OC[C@@H](Cc2ccc3c(c2)OCO3)[C@@H]1Cc1ccc2c(c1)OCO2 | 7.86 | 9.07 | 68.4 | 7.68 | 72.6 | 35.7 | Activity (A549 [4]): Active; Activity (A549 [5]): Active; Activity (A549 [6]): Active; Activity (KB [7]): Active; Activity (KB [8]): Active; Activity (KB [9]): Active; Activity (A549 [10]): Active; Activity (KB [11]): Active; Activity (A549 [12]): Active; Activity (KB [13]): Active; Activity (A549 [14]): Active; Activity (KB [15]): Active; Activity (A549 [16]): Active; Activity (KB [17]): Active; Activity (A549 [18]): Active; Activity (KB [19]): Active
3 | O=C(O)CC1OC[C@@H](Cc2ccc3c(c2)OCO3)[C@@H]1Cc1ccc2c(c1)OCO2 (some centres not stated) | 52.9 | 7.94 | > 100 | 73.9 | > 100 | > 100 | 
4 | O=C(NCc1ccc(C(F)(F)F)cc1)[C@@H](Cc1ccc2c(c1)OCO2)[C@@H](CO)Cc1ccc2c(c1)OCO2 | > 100 | 8.86 | 73.7 | 19.2 | > 100 | 64.9 | 
5 | OC[C@@H](Cc1ccc2c(c1)OCO2)[C@@H](CO)Cc1ccc2c(c1)OCO2 | 75.5 | 30.2 | > 100 | 7.82 | 85.3 | > 100 | 
6 | CC(C)CCN1C(=O)[C@@H](Cc2ccc3c(c2)OCO3)[C@H](Cc2ccc3c(c2)OCO3)C1=O | > 100 | > 100 | 89.3 | 7.71 | 67.7 | 66.2 | 
7 | COc1cccc(CNC(=O)[C@@H](Cc2ccc3c(c2)OCO3)[C@@H](CO)Cc2ccc3c(c2)OCO3)c1 | 7.28 | 7.98 | 25.3 | 80.5 | > 100 | 25.5 | 
8 | COc1cc([C@@H]2c3cc4c(cc3[C@@H](O[C@@H]3O[C@@H]5CO[C@@H](C)O[C@H]5[C@H](O)[C@H]3O)[C@H]3COC(=O)[C@H]23)OCO4)cc(OC)c1O [ETOPOSIDE] |  | 4.39 |  |  |  |  | 
9 | COc1cc([C@@H]2c3cc4c(cc3[C@H](O)[C@H]3COC(=O)[C@H]23)OCO4)cc(OC)c1OC [PODOFILOX] |  |  |  |  |  |  | IC50 [20]: 0.01 µM
10 | O=C(NCCc1ccccc1)[C@@H](Cc1ccc2c(c1)OCO2)[C@@H](CO)Cc1ccc2c(c1)OCO2 | 7.28 | 7.91 | 57.5 | 7.09 | 7.83 | 58.9 | 
11 | OC1OC[C@@H](Cc2ccc3c(c2)OCO3)[C@@H]1Cc1ccc2c(c1)OCO2 (some centres not stated) | 8.3 | 8.66 | > 100 | 8.16 | 45.1 | 45.2 | 
12 | CC(C)CCNC(=O)[C@@H](Cc1ccc2c(c1)OCO2)[C@@H](CO)Cc1ccc2c(c1)OCO2 | 8.75 | 48.8 | 95.8 | 8.94 | 66.8 | 23.8 | 
13 | O=C(NCc1ccccc1)[C@@H](Cc1ccc2c(c1)OCO2)[C@@H](CO)Cc1ccc2c(c1)OCO2 | 10.8 | 8.6 | > 100 | 9.16 | 93.5 | 68 | 
14 | O=C1[C@@H](Cc2ccc3c(c2)OCO3)[C@H](Cc2ccc3c(c2)OCO3)C(=O)N1Cc1ccc(F)cc1 | > 100 | > 100 | > 100 | 8.95 | > 100 | 72.1 | 
15 | COc1ccc(CN2C(=O)[C@@H](Cc3ccc4c(c3)OCO4)[C@H](Cc3ccc4c(c3)OCO4)C2=O)cc1 | 45.5 | 8.69 | 33.4 | 9.13 | > 100 | 72.6 | 
16 | O=C(NCc1c[nH]c2ccccc12)[C@@H](Cc1ccc2c(c1)OCO2)[C@@H](CO)Cc1ccc2c(c1)OCO2 | > 100 | > 100 | > 100 | 6.38 | > 100 | 52.1 | Activity (KB [7]): Active; Activity (KB [8]): Active; Activity (KB [9]): Active; Activity (KB [11]): Active; Activity (KB [13]): Active; Activity (KB [15]): Active; Activity (KB [17]): Active; Activity (KB [19]): Active
17 | O=C(NCCO)[C@@H](Cc1ccc2c(c1)OCO2)[C@@H](CO)Cc1ccc2c(c1)OCO2 | > 100 | 87.4 | 85.2 | 7.96 | 45.2 | 51.1 | 
18 | O=C(NCc1ccc(F)cc1)[C@@H](Cc1ccc2c(c1)OCO2)[C@@H](CO)Cc1ccc2c(c1)OCO2 | 8.94 | 7.76 | 80 | 33.8 | 34.1 | 24.6 | 
19 | O=C1[C@@H](Cc2ccc3c(c2)OCO3)[C@H](Cc2ccc3c(c2)OCO3)C(=O)N1Cc1ccccc1 | 58.6 | 8.88 | > 100 | 7.36 | 65.4 | 71.8 | 
20 | COc1ccc(CNC(=O)[C@@H](Cc2ccc3c(c2)OCO3)[C@@H](CO)Cc2ccc3c(c2)OCO3)cc1 | 6.61 | 8.37 | 91.5 | 9.17 | 46.1 | 51.1 | Activity (A549 [4]): Active; Activity (A549 [5]): Active; Activity (A549 [6]): Active; Activity (A549 [10]): Active; Activity (A549 [12]): Active; Activity (A549 [14]): Active; Activity (A549 [16]): Active; Activity (A549 [18]): Active
